Experiments:
[1] = logP by HPLC on reversed-phase column (C 18), EEC Directive 79/831 Annex V.A8; format: physicochemical
[2] = tested on: Erysiphe graminis f.sp. hordei; experiment: In vivo preventive test on Erysiphe graminis (powdery mildew on barley); settings: Blumeria graminis, topical, 168 h, 1000 ppm of active ingredient, evaluated 7 days after inoculation, read-out: efficacy
Method: In Vivo Preventive Test on Erysiphe gramini (Powdery Mildew on Barley)
To produce a suitable preparation of active compound, 1 part by weight of active compound or active compound combination is mixed with the stated amounts of solvent and emulsifier, and the concentrate is diluted with water to the desired concentration.
To test for preventive activity, young plants are sprayed with the preparation of active compound or active compound combination at the stated rate of application.
After the spray coating has dried on, the plants are dusted with spores of Erysiphe graminis f.sp. hordei
The plants are placed in a greenhouse at a temperature of approximately 20° C. and a relative atmospheric humidity of approximately 80% to promote the development of mildew pustules.
(§1) The test is evaluated 7 days after the inoculation. 0% means an efficacy which corresponds to that of the control, while an efficacy of 100% means that no disease is observed.

Podosphaera leucotricha = experiment: In vivo protective test on Podosphaera leucotricha (apples); settings: topical, 240 h, 100 ppm of active ingredient, evaluated 10 days after inoculation, read-out: efficacy
From the text: In Vivo Protective Test on Podosphaera leucotricha (Apples) [table] […] To test for protective activity, young plants are sprayed with the preparation of active compound at the stated rate of application. After the spray coating has dried on, the plants are inoculated with an aqueous spore suspension of the causal agent of apple mildew (Podosphaera leucotricha).

Aedes aegypti larvae = experiment: In vivo protective test on Aedes aegypti (AEDSAE U)
Method: In Vivo Protective Test on Aedes Aegypti (AEDSAE U)
To produce a suitable preparation of the active compound, the active compound is mixed with the stated amount of solvent, and the concentrate is diluted with staining water to the desired concentration.
Aedes aegypti larvae are pipetted with a preparation of active ingredient of the desired concentration.
After the specified period of time, mortality in % is determined. 100% means that all larvae have been killed, a 0% means that none of the larvae have been killed.

[3] = logP by HPLC on reversed-phase column (C 18), EEC Directive 79/831 Annex V.A8; format: physicochemical; settings: reversed-phase HPLC column (C 18), C 18, 40° C., 0.1% aqueous formic acid and acetonitrile, read-out: logPa
Method: Temperature: 40° C.; Mobile phases: 0.1% aqueous formic acid and acetonitrile; linear gradient from 10% acetonitrile to 90% acetonitrile.
Calibration was carried out using unbranched alkan-2-ones (comprising 3 to 16 carbon atoms) with known logP values (determination of the logP values by the retention times using linear interpolation between two successive alkanones).

Alternaria solani = experiment: In vivo protective test on Alternaria solani (leaf spot of tomato); settings: topical, 168 h, 500 ppm of active ingredient, evaluated 7 days after inoculation, read-out: efficacy
Method: In Vivo Protective Test on Alternaria solani (Leaf Spot of Tomato)
(§2) To produce a suitable preparation of active compound, 1 part by weight of active compound is mixed with the stated amounts of solvent and emulsifier, and the concentrate is diluted with water to the desired concentration.
To test for protective activity, young plants are sprayed with the preparation of active compound at the stated rate of application. After the spray coating has dried on, the plants are inoculated with an aqueous spore suspension of Alternatia solani. The plants remain for one day in an incubation cabinet at approximately 20° C. and a relative atmospheric humidity of 100%. Then the plants are placed in an incubation cabinet at approximately 20° C. and a relative atmospheric humidity of 96%.
The test is evaluated 7 days after the inoculation. 0% means an efficacy which corresponds to that of the control while an efficacy of 100% means that no disease is observed.

[4] = tested on: Puccinia recondita f. Sp. tritici; experiment: In vivo preventive test on Puccinia recondita f. Sp. tritici (wheat brown rust); settings: topical, 240 h, 1000 ppm of active ingredient, evaluated 10 days after inoculation, read-out: efficacy
Method: In Vivo Preventive Test on Puccinia recondita f. Sp. tritici (Wheat Brown Rust)
as §2
To test for preventive activity, young plants are […]. After the spray coating has dried on, the plants are sprayed with the preparation of active compound at the stated rate of application. The plants remain for 24 hours in an incubation cabinet at 20° C. and a relative atmospheric humidity of 100%.
The plants are placed in a greenhouse at a temperature of approximately 20° C. and a relative atmospheric humidity of approximately 80% to promote the development of rust pustules.
The test is evaluated 10 days after the inoculation. 0% means an efficacy which corresponds to that of the control, while an efficacy of 100% means that no disease is observed.

Sphaerotheca fuliginea = experiment: In vivo protective test on Sphaerotheca fuliginea (cucumbers); settings: Podosphaera fuliginea, topical, 168 h, 100 ppm of active ingredient, evaluated 7 days after inoculation, read-out: efficacy
Method: In Vivo Protective Test on Sahaerotheca fuliginea (Cucumbers)
as §2
To test for protect activity, young plants are sprayed with the preparation of active compound at the stated rate of application. After the spray coating has dried on, the plants are inoculated with an aqueous spore suspension of Sphaerotheca fuliginea. The plants are then placed in a greenhouse at approximately 23° C. and a relative atmospheric humidity of approximately 70%.
as §1

[5] = tested on: eggs of cotton bollworm (Heliothis virescens); experiment: In vivo protective test on Heliothis virescens (HELIVI U); settings: soybean leaf sections infested with Heliothis virescens eggs
From the text: In Vivo Protective Test on Heliothis virescens (HELIVI U)
To produce a suitable preparation of the active compound, 1 part by weight of active compound is mixed with the stated amount of solvent and emulsifier, and the concentrate is dilutes with emulsifier-containing water to the desired concentration.
Soybean (Glycine max.) leaf sections are sprayed with a preparation of the active ingredient of the desired concentration. Once dry, the leaf sections are infested with eggs of cotton bollworm (Heliotis virescens).
After the specified period of time, mortality in % is determined. 100% means that all eggs have been killed and 0% means that none of the eggs have been killed.

[6] = tested on: mosquito larvae (Aedes aegypti); experiment: In vivo protective test on Aedes aegypti (AEDSAE MO); settings: Aedes aegypti third larvae
Method: In Vivo Protective Test on Aedes aegypti (AEDSAE MO)
To produce a suitable preparation of active compound, 1 part by weight of active compound is mixed with the stated amount of solvent, and the concentrate is diluted with water to the desired concentration.
10 to 20 third mosquito larvae (Aedes aegypti) are added to the well and incubated.
After the specified period of time, mortality in % is determined. 100% means that all of the larvae have been killed; 0% means that none of the larvae have been killed.

| SMILES | log P (pH 2.3) [1] | pest or weed control at 1000 ppm [2] [%] | pest or weed control at 100 ppm (Podosphaera leucotricha) [%] | activity (mortality of larvae) (Aedes aegypti larvae) | chromatographic logP [3] | pest or weed control at 500 ppm (Alternaria solani) [%] | pest or weed control at 1000 ppm [4] [%] | pest or weed control at 100 ppm (Sphaerotheca fuliginea) [%] | activity (mortality of eggs) [5] | activity (mortality of larvae) [6] |
| --- | --- | --- | --- | --- | --- | --- | --- | --- | --- | --- |
| Cc1cc(Oc2ccc(Cl)c(C(C)(C)C)c2)c(Cl)cc1N [4-(3-t-butyl-4-chlorohenoxy)-5-chloro-2-methylaniline] | 5.68 | – | – | – | – | – | – | – | – | – |
| Cc1cc([N+](=O)[O-])c(C)cc1Oc1ccc(Cl)c(C(C)(C)C)c1 [4-(3-t-butyl-4-chlorphenoxy)-2,5-dimethylnitrobenzene] | 6.32 | – | – | – | – | – | – | – | – | – |
| Cc1cc(Oc2ccc(Cl)c(C(C)(C)C)c2)c(C)cc1N [4-(3-t-butyl-4-chlorphenoxy)-2,5-xylidine] | 4.38 | – | – | – | – | – | – | – | – | – |
| Cc1cc(Oc2ccc(Cl)c(C(C)(C)C)c2)c(Cl)cc1[N+](=O)[O-] [4-(3-t-butyl-4-chlorphenoxy)-5-chloro-2-methylnitrobenzene] | 6.32 | – | – | – | – | – | – | – | – | – |
| CCN(C)C=Nc1cc(Cl)c(Oc2ccc(Cl)c(C(C)(C)C)c2)cc1C [Example 1, N-Ethyl-N-methyl-N′-[4-(3-t-butyl-4-chlorphenoxy)-5-chloro-2-methylphenyl]formamidine] | 2.80 | – | – | – | – | – | – | – | – | – |
| CCN(C)C=Nc1cc(C)c(Oc2ccc(Cl)c(C(C)(C)C)c2)cc1C [Example 2, N-Ethyl-N-methyl-N′-[4-(3-t-butyl-4-chlorphenoxy)-2,5-xylyl]formamidine] | 3.04 | – | – | – | – | – | – | – | – | – |
| CCN(C)/C=N/c1cc(C)c(Oc2ccc(Cl)c(C(C)C)c2)cc1C [Example 3] | – | ≥ 70 | ≥ 70 | good activity | 2.75 | ≥ 70 | ≥ 70 | ≥ 70 | – | – |
| Cc1cc(Oc2ccc(Cl)c(C(C)(C)C)c2)c(C)cc1/N=C/N(C)C(C)C [Example 9] | – | ≥ 70 | ≥ 70 | – | 3.42 | ≥ 70 | ≥ 70 | ≥ 70 | – | – |
| CCc1cc(Oc2cc(C)c(/N=C/N(C)CC)cc2Cl)ccc1Cl [Example 13] | – | ≥ 70 | ≥ 70 | – | 2.78 | ≥ 70 | ≥ 70 | ≥ 70 | – | – |
| CCCN(C)/C=N/c1cc(C)c(Oc2ccc(Cl)c(CC)c2)cc1C [Example 14] | – | ≥ 70 | ≥ 70 | – | 2.76 | ≥ 70 | ≥ 70 | ≥ 70 | – | – |
| CCCN(C)/C=N/c1cc(C)c(Oc2ccc(Br)c(C(C)C)c2)cc1C [Example 17] | – | ≥ 70 | ≥ 70 | – | 2.91 | ≥ 70 | ≥ 70 | ≥ 70 | – | – |
| Cc1cc(Oc2ccc(Br)c(C(C)C)c2)c(C)cc1/N=C/N(C)C(C)C [Example 18] | – | ≥ 70 | ≥ 70 | – | 3.34 | ≥ 70 | ≥ 70 | ≥ 70 | good activity | good activity |
| CCN(C)/C=N/c1cc(C)c(Oc2ccc(Br)c(C(C)C)c2)cc1C [Example 19] | – | ≥ 70 | ≥ 70 | – | 3.04 | ≥ 70 | ≥ 70 | ≥ 70 | – | – |
| CCN(C)/C=N/c1cc(Cl)c(Oc2ccc(Cl)c(C(C)C)c2)cc1C [Example 20] | – | ≥ 70 | ≥ 70 | – | 2.95 | ≥ 70 | ≥ 70 | ≥ 70 | – | – |
| CCCN(C)/C=N/c1cc(Cl)c(Oc2ccc(Cl)c(C(C)C)c2)cc1C [Example 21] | – | ≥ 70 | ≥ 70 | – | 3.03 | ≥ 70 | ≥ 70 | ≥ 70 | – | – |
| Cc1cc(Oc2ccc(Cl)c(C(C)C)c2)c(Cl)cc1/N=C/N(C)C(C)C [Example 22] | – | ≥ 70 | ≥ 70 | – | 3.17 | ≥ 70 | ≥ 70 | ≥ 70 | – | – |
| CCCN(C)/C=N/c1cc(Cl)c(Oc2ccc(Cl)c(C(C)(C)C)c2)cc1C [Example 25] | – | ≥ 70 | ≥ 70 | – | 3.27 | ≥ 70 | ≥ 70 | ≥ 70 | – | – |
| CCN(C)/C=N/c1cc(Cl)c(Oc2ccc(Cl)c(C(C)(C)C)c2)cc1C [Example 26] | – | ≥ 70 | ≥ 70 | – | 3.02 | ≥ 70 | ≥ 70 | ≥ 70 | – | – |
| Cc1cc(Oc2ccc(Cl)c(C(C)C)c2)c(C)cc1/N=C/N(C)C(C)C [Example 28] | – | ≥ 70 | ≥ 70 | – | 2.74 | ≥ 70 | ≥ 70 | ≥ 70 | – | – |
| CCN(C)/C=N/c1cc(Cl)c(Oc2ccc(Br)c(C(C)C)c2)cc1C [Example 30] | – | ≥ 70 | ≥ 70 | – | 2.84 | ≥ 70 | ≥ 70 | ≥ 70 | – | – |
| CCc1cc(Oc2cc(C)c(/N=C/N(C)C(C)C)cc2C)ccc1Cl [Example 32] | – | ≥ 70 | ≥ 70 | – | 2.75 | ≥ 70 | ≥ 70 | ≥ 70 | – | – |

Source: patent US8183296B2, “Pesticide phenyloxy substituted phenylamidine derivatives” (Bayer Cropscience AG, priority 2005, dated 2012)
